From patent US10881653B2, “Tricyclic compounds and their use in the treatment of cancer” (The United States of America, as represented by the …, priority 2015, dated 2021)
Counter-ions that a name gives are not always drawn. Like-named read-outs stand apart in the source and are kept apart here.

How the values were obtained:
[1] = biological target: T1, gluthathione reductase (GR) (Homo sapiens, UniProt P00390); assay: Inhibition of recombinant GR (GSSG assay); type: biochemical
T1 sequence (P00390 44-522): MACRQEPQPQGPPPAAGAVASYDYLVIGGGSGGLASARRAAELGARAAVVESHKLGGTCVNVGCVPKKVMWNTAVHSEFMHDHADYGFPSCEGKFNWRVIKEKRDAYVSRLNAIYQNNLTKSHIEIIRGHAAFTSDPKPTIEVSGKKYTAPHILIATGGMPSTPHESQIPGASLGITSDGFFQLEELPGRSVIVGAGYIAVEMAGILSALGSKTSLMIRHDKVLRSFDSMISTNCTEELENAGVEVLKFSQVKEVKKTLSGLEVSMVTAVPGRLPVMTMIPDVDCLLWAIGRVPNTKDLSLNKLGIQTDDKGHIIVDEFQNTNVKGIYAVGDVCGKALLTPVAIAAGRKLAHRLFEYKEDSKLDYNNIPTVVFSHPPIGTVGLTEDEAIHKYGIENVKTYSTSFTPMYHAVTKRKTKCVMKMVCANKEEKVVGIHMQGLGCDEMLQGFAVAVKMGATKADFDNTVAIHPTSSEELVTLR
Procedure: (§1) Small molecule inhibition of recombinant thioredoxin reductase 1 (TrxR1) and gluthathione reductase (GR) was examined in 96-well plate format. 15 nM TrxR1 was incubated in the presence of 250 μM NADPH, 0.1 mg/ml BSA, and various concentrations of the compound of Example 1 (1% DMSO final) in 50 mM Tris (pH 7.5) and 2 mM EDTA buffer for 15 minutes. Following the incubation period, 2.5 mM DTNB was added to each well and the change in O.D. at 412 nm was followed. Percent activity was determined using DMSO vehicle and no TrxR1 (blank) controls. 2 nM GR was incubated in the presence of 250 μM NADPH, 0.1 mg/ml BSA, and various concentrations of compounds (1% DMSO final) in 50 mM Tris (pH 7.5) and 2 mM EDTA buffer for 15 minutes. Following the incubation period, 1 mM GSSG was added to each well and the change in O.D. at 340 nm was followed. Percent activity was determined using DMSO vehicle and no GR (blank) controls.

[2] = biological target: T2, recombinant thioredoxin reductase 1 (TrxR1) (Homo sapiens, UniProt Q16881); assay: Inhibition of recombinant TrxR1 (DTNB assay); type: biochemical
T2 sequence (Q16881 1-649): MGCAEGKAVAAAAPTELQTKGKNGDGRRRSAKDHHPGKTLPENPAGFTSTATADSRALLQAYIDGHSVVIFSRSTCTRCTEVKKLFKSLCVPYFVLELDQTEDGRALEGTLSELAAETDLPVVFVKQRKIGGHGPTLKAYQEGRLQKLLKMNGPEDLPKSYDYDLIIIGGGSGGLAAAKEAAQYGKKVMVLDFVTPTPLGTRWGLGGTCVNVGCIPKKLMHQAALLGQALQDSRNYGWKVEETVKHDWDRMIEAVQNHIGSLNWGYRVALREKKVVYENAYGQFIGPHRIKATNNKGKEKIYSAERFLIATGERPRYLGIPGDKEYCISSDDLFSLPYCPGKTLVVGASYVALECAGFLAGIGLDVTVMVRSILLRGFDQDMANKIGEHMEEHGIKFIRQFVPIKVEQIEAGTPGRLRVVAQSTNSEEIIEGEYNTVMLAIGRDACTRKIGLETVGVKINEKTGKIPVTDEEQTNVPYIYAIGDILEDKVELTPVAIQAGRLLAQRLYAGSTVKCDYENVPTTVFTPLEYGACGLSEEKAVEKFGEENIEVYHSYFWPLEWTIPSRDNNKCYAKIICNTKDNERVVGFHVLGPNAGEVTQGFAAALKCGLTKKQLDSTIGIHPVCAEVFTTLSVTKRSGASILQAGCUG
Procedure: as §1

[3] = Biological Example 1, 2 nM GR, 250 μM NADPH, 15 minutes incubation
[4] = Biological Example 4, assays of Biological Example 1
[5] = Biological Example 1, 15 nM TrxR1, 250 μM NADPH, 15 minutes incubation, read-out: TrxR inhibition
[6] = Biological Example 4, assays of Biological Example 1, read-out: TrxR Inhibition

IC50 [1, 3] | IC50 [1, 4] | IC50 [2, 5] | IC50 [2, 6] | Structure (SMILES)
> 100000 nM | > 100000 nM | 1310 nM | 1990 nM | NS(=O)(=O)c1cccc(CN2[C@@H]3C(=O)C=C[C@H]2[C@@H]2C(=O)N(c4ccccc4)C(=O)[C@@H]23)c1 (relative stereo) [Example 67, exo-3-((3,5,10-Trioxo-4-phenyl-4,11-diazatricyclo[5.3.1.0^2,6]undec-8-en-11-yl)methyl)benzenesulfonamide Trifluoroacetate]
> 100000 nM | > 100000 nM | 2260 nM | 2620 nM | Cc1cccc(CN2[C@@H]3C(=O)C=C[C@H]2[C@@H]2C(=O)N(c4cccc(N5CCOCC5)c4)C(=O)[C@@H]23)c1 (relative stereo) [Example 70, exo-11-(3-Methylbenzyl)-4-(3-(4-morpholino)phenyl)-4,11-diazatricyclo-[5.3.1.0^2,6]undec-9-ene-3,5,8-trione Trifluoroacetate]
 | > 100000 nM |  | 3040 nM | CC(=O)Nc1ccc(N2C(=O)[C@@H]3[C@H](C2=O)[C@H]2C(=O)C=C[C@@H]3N2Cc2cccc(C)c2)cc1 (stereo in doubt) [Example 57, N-(4-(11-(3-Methylbenzyl)-3,5,10-trioxo-4,11-diazatricyclo[5.3.1.0^2,6]undec-8-en-4-yl)phenyl)acetamide Trifluoroacetate]
 | > 100000 nM |  | 2490 nM | CC(c1ccccc1)N1C2C=CC(=O)C1C1C(=O)N(c3ccccc3)C(=O)C12 (centres unmarked) [Example 5, 4-Phenyl-11-(1-phenylethyl)-4,11-diazatricyclo[5.3.1.0^2,6]undec-9-ene-3,5,8-trione Trifluoroacetate]
61900 nM | 31300 nM | 2120 nM | 570 nM | O=C1C=CC2C3C(=O)N(c4ccccc4)C(=O)C3C1N2Cc1ccc(Br)cc1 (centres unmarked) [Example 6, 11-(4-Bromobenzyl)-4-phenyl-4,11-diazatricyclo[5.3.1.0^2,6]undec-9-ene-3,5,8-trione Trifluoroacetate]
 | 41400 nM |  | 1250 nM | CC1=CC(=O)C2C3C(=O)N(c4ccccc4)C(=O)C3C1N2Cc1ccccc1 (centres unmarked) [Example 12, 9-Benzyl-7-methyl-2-phenyl-3a,4,8,8a-tetrahydro-4,8-epiminocyclohepta[c]-pyrrole-1,3,5(2H)-trione Trifluoroacetate]
 | > 100000 nM |  | 7820 nM | CC1=CC(=O)[C@@H]2C3C(=O)N(C4CCCCC4)C(=O)C3[C@H]1N2Cc1ccccc1 (stereo partly drawn) [Example 13, endo-11-Benzyl-4-cyclohexyl-10-methyl-4,11-diazatricyclo[5.3.1.0^2,6]undec-9-ene-3,5,8-trione Trifluoroacetate]
> 100000 nM | > 100000 nM | 1450 nM | 3330 nM | CC1=CC(=O)C2C3C(=O)N(Cc4ccccc4)C(=O)C3C1N2Cc1ccccc1 (centres unmarked) [Example 15, 4,11-Dibenzyl-10-methyl-4,11-diazatricyclo[5.3.1.0^2,6]undec-9-ene-3,5,8-trione Trifluoroacetate]
 | 29800 nM |  | 2710 nM | O=C1C=C[C@H]2C3C(=O)N(c4ccccc4)C(=O)C3[C@@H]1N2Cc1cccc(F)c1 (some centres unmarked) [Example 28]
 | 68500 nM |  | 1470 nM | N#Cc1cccc(CN2C3C=CC(=O)C2C2C(=O)N(c4ccccc4)C(=O)C23)c1 (centres unmarked) [Example 36, 3-((4-Phenyl-3,5,10-trioxo-4,11-diazatricyclo[5.3.1.0^2,6]undec-8-en-11-yl)-methyl)benzonitrile Trifluoroacetate]

More lines, now with the values behind:

Structure (SMILES) | IC50 [1, 3] | IC50 [1, 4] | IC50 [2, 5] | IC50 [2, 6]
CS(=O)(=O)c1cccc(CN2[C@@H]3C(=O)C=C[C@H]2[C@@H]2C(=O)N(c4ccccc4)C(=O)[C@@H]23)c1 (relative stereo) [Example 68, exo-11-(3-(Methylsulfonyl)benzyl)-4-phenyl-4,11-diazatricyclo[5.3.1.0^2,6]-undec-9-ene-3,5,8-trione Trifluoroacetate] | > 100000 nM | > 100000 nM | 1880 nM | 2240 nM
O=C1C=CC2C3C(=O)N(c4ccccc4)C(=O)C3C1N2Cc1ccc(F)cc1 (centres unmarked) [Example 8, 11-(4-Fluorobenzyl)-4-phenyl-4,11-diazatricyclo[5.3.1.0^2,6]undec-9-ene-3,5,8-trione Trifluoroacetate] |  | 28500 nM |  | 2030 nM
O=C1C=CC2C3C(=O)N(c4ccccc4)C(=O)C3C1N2Cc1ccccc1Br (centres unmarked) [Example 20, 11-(2-Bromobenzyl)-4-phenyl-4,11-diazatricyclo[5.3.1.0^2,6]undec-9-ene-3,5,8-trione Trifluoroacetate] | > 100000 nM | > 100000 nM | 3700 nM | 940 nM
O=C1C=CC2C3C(=O)N(c4ccccc4)C(=O)C3C1N2Cc1cccc(F)c1F (stereo not drawn) [Example 31, exo-11-(2,3-Difluorobenzyl)-4-phenyl-4,11-diazatricyclo[5.3.1.0^2,6]undec-9-ene-3,5,8-trione Trifluoroacetate] |  | > 100000 nM |  | 1060 nM
O=C1C=CC2C3C(=O)N(c4ccccc4)C(=O)C3C1N2Cc1cccc(C(F)(F)F)c1 (centres unmarked) [Example 32, 4-Phenyl-11-(3-trifluorobenzyl)-4,11-diazatricyclo[5.3.1.0^2,6]undec-9-ene-3,5,8-trione Trifluoroacetate] |  | 35800 nM |  | 1440 nM
Cc1cc(C)cc(CN2C3C=CC(=O)C2C2C(=O)N(c4ccccc4)C(=O)C23)c1 (stereo not drawn) [Example 33, exo-11-(3,5-Dimethylbenzyl)-4-phenyl-4,11-diazatricyclo[5.3.1.0^2,6]undec-9-ene-3,5,8-trione Trifluoroacetate] |  | > 100000 nM |  | 1330 nM
O=C1C=CC2C3C(=O)N(c4ccccc4)C(=O)C3C1N2Cc1cccc(Br)c1 (stereo not drawn) [Example 34, exo-11-(3-Bromobenzyl)-4-phenyl-4,11-diazatricyclo[5.3.1.0^2,6]undec-9-ene-3,5,8-trione Trifluoroacetate] |  | > 100000 nM |  | 1230 nM
Cc1cccc(CN2C3C=CC(=O)C2C2C(=O)N(c4ccccc4)C(=O)C23)c1F (stereo not drawn) [Example 35, exo-11-(2-Fluoro-3-methylbenzyl)-4-phenyl-4,11-diazatricyclo[5.3.1.0^2,6]-undec-9-ene-3,5,8-trione Trifluoroacetate] |  | > 100000 nM |  | 1060 nM
Cc1cc(CN2C3C=CC(=O)C2C2C(=O)N(c4ccccc4)C(=O)C23)ccc1F (stereo not drawn) [Example 37, exo-11-(4-Fluoro-3-methylbenzyl)-4-phenyl-4,11-diazatricyclo[5.3.1.0^2,6]-undec-9-ene-3,5,8-trione Trifluoroacetate] |  | > 100000 nM |  | 930 nM
Cc1ccc(F)c(CN2C3C=CC(=O)C2C2C(=O)N(c4ccccc4)C(=O)C23)c1F (stereo not drawn) [Example 38, endo-11-(2,6-Difluoro-3-methylbenzyl)-4-phenyl-4,11-diazatricyclo-[5.3.1.0^2,6]undec-9-ene-3,5,8-trione Trifluoroacetate] |  | 12300 nM |  | 1360 nM
Cc1ccc(F)c(CN2C3C=CC(=O)C2C2C(=O)N(c4ccccc4)C(=O)C23)c1F (stereo not drawn) [Example 39, exo-11-(2,6-Difluoro-3-methylbenzyl)-4-phenyl-4,11-diazatricyclo[5.3.1.0^2,6]-undec-9-ene-3,5,8-trione Trifluoroacetate] |  | > 100000 nM |  | 1290 nM
O=C1C=CC2C3C(=O)N(c4ccccc4)C(=O)C3C1N2Cc1cc(Cl)ccc1F (stereo not drawn) [Example 40, exo-11-(5-Chloro-2-fluorobenzyl)-4-phenyl-4,11-diazatricyclo[5.3.1.0^2,6]-undec-9-ene-3,5,8-trione Trifluoroacetate] |  | 31600 nM |  | 770 nM
